In ChEMBL document CHEMBL4739716, “Gpr139 receptor modulators” (2020):

Columns and labels:
[1] = target: T1, Probable G-protein coupled receptor 139 (Rattus norvegicus) (UniProt P0C0W8); assay: Agonist activity at rat GPR139 expressed in CHO-K1 cells assessed as increase in calcium flux by calcium 5 dye based FLIPR assay relative to JNJ63533054; format: cell-based
T1 sequence (whole entry): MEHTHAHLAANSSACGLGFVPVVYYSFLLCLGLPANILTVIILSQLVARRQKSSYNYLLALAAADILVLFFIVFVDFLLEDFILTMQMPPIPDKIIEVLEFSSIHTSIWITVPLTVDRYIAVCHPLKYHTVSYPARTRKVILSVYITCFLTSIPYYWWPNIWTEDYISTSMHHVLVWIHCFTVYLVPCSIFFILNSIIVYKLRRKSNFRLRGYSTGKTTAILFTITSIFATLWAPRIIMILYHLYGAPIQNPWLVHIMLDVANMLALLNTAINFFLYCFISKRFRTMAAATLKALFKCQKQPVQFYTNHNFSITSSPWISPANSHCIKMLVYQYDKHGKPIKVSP

[2] = target: T2, Probable G-protein coupled receptor 139 (Homo sapiens, UniProt Q6DWJ6); assay: Agonist activity at human GPR139 expressed in CHO-K1 cells assessed as induction of beta-arrestin 2 recruitment incubated for 90 mins by PathHunter assay; format: cell-based
T2 sequence (Q6DWJ6 whole entry): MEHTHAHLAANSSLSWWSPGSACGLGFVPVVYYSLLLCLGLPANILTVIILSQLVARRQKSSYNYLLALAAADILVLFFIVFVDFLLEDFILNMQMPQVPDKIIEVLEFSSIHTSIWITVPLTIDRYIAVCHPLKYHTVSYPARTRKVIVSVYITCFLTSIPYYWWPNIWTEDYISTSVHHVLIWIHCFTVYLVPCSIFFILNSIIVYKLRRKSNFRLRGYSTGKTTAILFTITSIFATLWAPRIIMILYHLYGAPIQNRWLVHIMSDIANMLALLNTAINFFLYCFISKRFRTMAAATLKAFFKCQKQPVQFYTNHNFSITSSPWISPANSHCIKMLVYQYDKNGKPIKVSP

[3] = target: T3, Probable G-protein coupled receptor 139 (Homo sapiens) (UniProt Q6DWJ6); assay: Agonist activity at human GPR139 expressed in CHO-K1 cells assessed as increase in calcium flux by calcium 5 dye based FLIPR assay relative to JNJ63533054; format: functional, cell-based; details: filed as agonist
T3 sequence (whole entry): T2 sequence (Q6DWJ6 whole entry)

[4] = target: T4, Probable G-protein coupled receptor 139 (Rattus norvegicus, UniProt P0C0W8); assay: Agonist activity at rat GPR139 expressed in CHO-K1 cells assessed as increase in calcium flux by calcium 5 dye based FLIPR assay; format: cell-based
T4 sequence (P0C0W8 whole entry): T1 sequence (whole entry)

[5] = target: T2, Probable G-protein coupled receptor 139; assay: Agonist activity at human GPR139 expressed in CHO-K1 cells assessed as increase in calcium flux by calcium 5 dye based FLIPR assay; format: functional, cell-based
[6] = target: T3, Probable G-protein coupled receptor 139 (Homo sapiens); assay: Agonist activity at human GPR139 expressed in CHO-K1 cells assessed as induction of beta-arrestin 2 recruitment incubated for 90 mins by PathHunter assay relative to JNJ63533054; format: cell-based

SMILES	Emax ([1]; filed as agonist) [%]	EC50 [2] [nM]	Emax [3] [%]	EC50 [4] [nM]	EC50 [5] [nM]	Emax [6] [%]	EC50 ([4]; cho-k1) [nM]	EC50 ([5]; cho-k1) [nM]	EC50 ([2]; cho-k1) [nM]	Emax ([6]; filed as agonist) [%]	Emax [1] [%]
C[C@H](NC(=O)Cn1nc2c(OC3CN(C)C3)nccn2c1=O)c1ccc(Cl)c(F)c1	> 80	≥ 100	50	≥ 100	≥ 100	25					
C[C@H](NC(=O)Cn1nc2cc(N3CCC(O)CC3)ccn2c1=O)c1ccc(OC(F)(F)F)cc1	> 80	≥ 100	> 80			25	1	1			
C[C@H](NC(=O)Cn1nc2ccc(C#N)cn2c1=O)c1ccc(Cl)c(F)c1	50		> 80		< 1		1		1	> 80	
O=C(Cn1nc2ccc(F)cn2c1=O)NC1(c2cccc(Cl)c2)CC1	50	≥ 100	> 80	≥ 100	≥ 100	25					
Cc1ccc([C@H](C)NC(=O)Cn2nc3ncccn3c2=O)cc1F	50		> 80				1	1	10	50	
C[C@H](NC(=O)Cn1nc2c(N3CCOCC3)cccn2c1=O)c1ccc(Cl)c(F)c1	50		> 80	< 1	< 1				10	50	
O=C(Cn1nc2cccnn2c1=O)NC1(c2cccc(Cl)c2)CC1	50	≥ 100	50	≥ 100	≥ 100	< 25					
C[C@H](NC(=O)Cn1nc2c(N3CCC34CNC4)cccn2c1=O)c1ccc(Cl)c(F)c1	> 80	≥ 100	> 80			25	10	1			
C[C@H](NC(=O)Cn1nc2c(I)ccnn2c1=O)c1ccc(OC(F)(F)F)cc1	25	≥ 100	50		< 1	< 25	10				
C[C@H](NC(=O)Cn1nc2cc(NC3COC3)ccn2c1=O)c1ccc(Cl)c(F)c1	> 80		> 80	< 1				1	1	> 80	
COc1ccn2c(=O)n(CC(=O)N[C@@H](C)c3ccc(OC(F)(F)F)cc3)nc2c1	50		> 80	< 1	< 1				1	> 80	
Cc1ccc([C@H](C)NC(=O)Cn2nc3c(NCC(F)F)cccn3c2=O)cc1	> 80	< 1	> 80	< 1	< 1					50	
C[C@H](NC(=O)Cn1nc2ncc(C3CC3)cn2c1=O)c1ccc(Cl)c(F)c1	50		> 80		< 1		10		1	50	
COc1cccc2nn(CC(=O)N[C@@H](C)c3ccc(Cl)cc3)c(=O)n12	50		50		< 1		1		1	50	
C[C@H](NC(=O)Cn1nc2ccc(C3CC3)nn2c1=O)c1ccc(OC(F)(F)F)cc1			> 80	≥ 100		25		1	10		< 25
CNc1ccnn2c(=O)n(CC(=O)N[C@@H](C)c3ccc(OC(F)(F)F)cc3)nc12	50		> 80		< 1		1		10	50	
Cc1cc(Cl)ccc1[C@H](C)NC(=O)Cn1nc2cccnn2c1=O	50	≥ 100	> 80				1	1		50	
C[C@H](NC(=O)Cn1nc2cccnn2c1=O)c1ccc(Cl)c(Cl)c1	50		> 80				1	1	10	50	
C[C@H](NC(=O)Cn1nc2ccccn2c1=O)c1ccc(Cl)c(Cl)c1	> 80		> 80		< 1		1		1	> 80	
Cc1ccc([C@H](C)NC(=O)Cn2nc3ccc(C)cn3c2=O)cc1	50		> 80	< 1	< 1				1	50	
COc1cnn2c(=O)n(CC(=O)N[C@@H](C)c3ccc(Cl)c(F)c3)nc2c1	> 80		> 80	< 1	< 1				1	> 80	
Cc1ccc2nn(CC(=O)N[C@@H](C)c3ccc(OC(F)(F)F)cc3)c(=O)n2c1	50		> 80	< 1	< 1				1	> 80	
Cc1ccc([C@H](C)NC(=O)Cn2nc3ccc(F)cn3c2=O)cc1F	50		> 80	< 1	< 1				1	50	
Cc1ccc([C@H](C)NC(=O)Cn2nc3ccccn3c2=O)cc1Cl	> 80		> 80		< 1		1		1	> 80	
C[C@H](NC(=O)Cn1nc2ncccn2c1=O)c1ccc(Cl)c(F)c1	50	≥ 100	> 80				1	1		50	
Cc1ccn2c(=O)n(CC(=O)N[C@@H](C)c3ccc(OC(F)(F)F)cc3)nc2c1	50		> 80	< 1	< 1				1	> 80	
O=C(Cn1nc2ccc(F)cn2c1=O)NC1(c2ccc(Cl)cc2)CC1		≥ 100	> 80	≥ 100		25		10			25
Cc1ccnn2c(=O)n(CC(=O)N[C@@H](C)c3ccc(Cl)c(F)c3)nc12	> 80		> 80		< 1		1		10	> 80	
